Assay results from patent US7816353B2 (Exelixis, Inc., priority 2003, dated 2010).
pIC50: −log10 of the molar value.

molecular target: T1, p70S6K (Homo sapiens, UniProt P23443, T412E); experiment: p70S6 Kinase Assay (Luciferase-Coupled Chemiluminescent Kinase assay, LCCA); type: biochemical; conditions: human p70S6 kinase domain residues 1-421, T412E; 5 μM ATP; read-out: p70S6K IC50
T1 construct: human p70S6 kinase domain residues 1-421, containing a T412E mutation; made in house
Description: Kinase activity and compound inhibition are investigated using one or more of the three assay formats described below. The ATP concentrations for each assay are selected to be close to the Michaelis-Menten constant (KM) for each individual kinase. Dose-response experiments are performed at 10 different inhibitor concentrations in a 384-well plate format. […] Y=Min+(Max−Min)/(1+(X/IC50)^H) Equation (2) p70S6 Kinase Assay
Biochemical activity of p70S6 kinase was assessed using a Luciferase-Coupled Chemiluminescent Kinase assay (LCCA) format. Kinase activity was measured as the percent ATP remaining following the kinase reaction. Remaining ATP was detected by luciferase-luciferin-coupled chemiluminescence. […] The mixture is incubated at ambient temperature for 2 hours after which 20 μL luciferase-luciferin mix is added and the chemiluminescent signal read using a Wallac Victor^2 reader.

T1 sequence (P23443 1-421 T412E): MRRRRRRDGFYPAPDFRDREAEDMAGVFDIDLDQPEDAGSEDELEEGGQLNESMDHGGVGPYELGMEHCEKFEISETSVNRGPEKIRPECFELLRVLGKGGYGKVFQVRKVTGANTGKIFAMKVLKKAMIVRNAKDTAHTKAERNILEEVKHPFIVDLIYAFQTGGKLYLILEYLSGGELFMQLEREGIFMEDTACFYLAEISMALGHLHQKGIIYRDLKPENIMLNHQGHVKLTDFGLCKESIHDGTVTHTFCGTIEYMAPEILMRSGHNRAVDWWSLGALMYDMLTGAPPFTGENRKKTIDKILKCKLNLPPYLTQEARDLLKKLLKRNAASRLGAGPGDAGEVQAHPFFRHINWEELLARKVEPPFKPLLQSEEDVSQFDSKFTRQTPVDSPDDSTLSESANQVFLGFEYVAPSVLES

**Q.** How did the pIC50 turn out when `CSc1nc(N)nc(N[C@@H](CCCNC(=N)N)C(=O)Nc2cccc(C(F)(F)F)c2)c1C#N` [Example 117, N^2-[2-amino-5-cyano-6-(methylthio)pyrimidin-4-yl]-N-[3-(trifluoromethyl)phenyl]-L-argininamide] was run?
**A.** < 5.70

**Q.** With `CCOc1nc(N)nc(N[C@@H](CN(C)C)C(=O)Nc2cccc(C(F)(F)F)c2)c1C#N` [Example 176, N~2~-[2-amino-5-cyano-6-(ethyloxy)pyrimidin-4-yl]-3-(dimethylamino)-N-[3-(trifluoromethyl)phenyl]-L-alaninamide] as the molecule, how does the pIC50 read?
**A.** < 5.70

**Q.** How did the pIC50 turn out when `COC(=O)c1cc(NC(=O)[C@H](C)Nc2nc(N)nc(OC)c2C#N)cc(C(F)(F)F)c1` [Example 189, methyl 3-({N-[2-amino-5-cyano-6-(methyloxy)pyrimidin-4-yl]-L-alanyl}amino)-5-(trifluoromethyl)benzoate] was run?
**A.** < 5.70

**Q.** With `CSc1nc(N)nc(N[C@@H](CCC(N)=O)C(=O)Nc2cccc(C(F)(F)F)c2)c1C#N` [Example 139] as the molecule, how does the pIC50 read?
**A.** 6.30 to 7.30

**Q.** `COc1nc(N)nc(N(C)[C@@H](C)C(=O)Nc2cccc(Br)c2)c1C#N` [Example 181, N~2~-[2-amino-5-cyano-6-(methyloxy)pyrimidin-4-yl]-N-(3-bromophenyl)-N~2~-methyl-L-alaninamide] was tested. Which pIC50 did it give?
**A.** < 5.70

**Q.** `CSc1nc(N)nc(N[C@@H](C)C(=O)Nc2cccc([N+](=O)[O-])c2)c1C#N` [Example 113, N^2-[2-amino-5-cyano-6-(methylthio)pyrimidin-4-yl]-N-(3-nitrophenyl)-L-alaninamide] was tested. Which pIC50 did it give?
**A.** < 5.70

**Q.** How did the pIC50 turn out when `COc1nc(N)nc(N(C)[C@@H](C)C(=O)Nc2cccc(C(F)(F)F)c2)c1C#N` [Example 119, N^2-[2-amino-5-cyano-6-(methyloxy)pyrimidin-4-yl]-N^2-methyl-N-[3-(trifluoromethyl)phenyl]-L-alaninamide] was run?
**A.** < 5.70

**Q.** With `COCCOC(=O)NCCC[C@H](Nc1nc(N)nc(SC)c1C#N)C(=O)Nc1cccc(C(F)(F)F)c1` [Example 126, 2-(methyloxy)ethyl ((4S)-4-{[2-amino-5-cyano-6-(methylthio)pyrimidin-4-yl]amino}-5-oxo-5-{[3-(trifluoromethyl)phenyl]amino}pentyl)carbamate] as the molecule, how does the pIC50 read?
**A.** < 5.70

**Q.** `CSc1nc(N)nc(N(C)[C@@H](C)C(=O)Nc2cccc(C(F)(F)F)c2)c1C#N` [Example 91, N^2-[2-amino-5-cyano-6-(methylthio)pyrimidin-4-yl]-N^2-methyl-N-[3-(trifluoromethyl)phenyl]-L-alaninamide] was tested. Which pIC50 did it give?
**A.** < 5.70

**Q.** `Nc1nc(NCC(=O)Nc2cccc(C(F)(F)F)c2)c2cn[nH]c2n1` [Example 57, N^2-(6-amino-1H-pyrazolo[3,4-d]pyrimidin-4-yl)-N-[3-(trifluoromethyl)phenyl]glycinamide] was tested. Which pIC50 did it give?
**A.** 5.70 to 6.30

**Q.** How did the pIC50 turn out when `COCCN(CCC[C@H](Nc1nc(N)nc(SC)c1C#N)C(=O)Nc1cccc(C(F)(F)F)c1)CCOC` [Example 184, N~2~-[2-amino-5-cyano-6-(methylthio)pyrimidin-4-yl]-N~5~,N~5~-bis[2-(methyloxy)ethyl]-N-[3-(trifluoromethyl)phenyl]-L-ornithinamide] was run?
**A.** < 5.70

**Q.** How did the pIC50 turn out when `C[C@H](Nc1nc(N)nc(OCCN(C)C)c1C#N)C(=O)Nc1cccc(C(F)(F)F)c1` [Example 102, N^2-(2-amino-5-cyano-6-{[2-(dimethylamino)ethyl]oxy}pyrimidin-4-yl)-N-[3-(trifluoromethyl)phenyl]-L-alaninamide] was run?
**A.** < 5.70

**Q.** How did the pIC50 turn out when `CCOc1nc(N)nc(N[C@@H](CCCNC(=O)OC(C)(C)C)C(=O)Nc2cccc(C(F)(F)F)c2)c1C#N` [Example 128, 1,1-dimethylethyl((4S)-4-{[2-amino-5-cyano-6-(ethyloxy)pyrimidin-4-yl]amino}-5-oxo-5-{[3-(trifluoromethyl)phenyl]amino}pentyl)carbamate] was run?
**A.** < 5.70

**Q.** How did the pIC50 turn out when `CCN(CC)CCNc1cc(NC(=O)[C@H](C)Nc2nc(N)nc(SC)c2C#N)cc(C(F)(F)F)c1` [Example 106, N^2-[2-amino-5-cyano-6-(methylthio)pyrimidin-4-yl]-N-[3-{[2-(diethylamino)ethyl]amino}-5-(trifluoromethyl)phenyl]-L-alaninamide] was run?
**A.** < 5.70

**Q.** How did the pIC50 turn out when `CSc1nc(N)nc(N[C@@H](CN2CCOCC2)C(=O)Nc2cccc(C(F)(F)F)c2)c1C#N` [Example 191, N~2~-[2-amino-5-cyano-6-(methylthio)pyrimidin-4-yl]-3-morpholin-4-yl-N-[3-(trifluoromethyl)phenyl]-L-alaninamide] was run?
**A.** < 5.70

**Q.** `C[C@H](Nc1nc(N)nc(S(C)(=O)=O)c1C#N)C(=O)Nc1cccc(C(F)(F)F)c1` [Example 75, N^2-[2-amino-5-cyano-6-(methylsulfonyl)pyrimidin-4-yl]-N-[3-(trifluoromethyl)phenyl]-L-alaninamide] was tested. Which pIC50 did it give?
**A.** < 5.70

**Q.** How did the pIC50 turn out when `CSc1nc(N)nc(N2CCC[C@@H]2C(=O)Nc2cccc(C(F)(F)F)c2)c1C#N` [Example 85, (R)-1-[2-amino-5-cyano-6-(methylthio)pyrimidin-4-yl]-N-[3-(trifluoromethyl)phenyl]prolinamide] was run?
**A.** < 5.70

**Q.** `CSc1nc(N)nc(N[C@@H](COCc2ccccc2)C(=O)Nc2cccc(C(F)(F)F)c2)c1C#N` [Example 183, N~2~-[2-amino-5-cyano-6-(methylthio)pyrimidin-4-yl]-O-(phenylmethyl)-N-[3-(trifluoromethyl)phenyl]-L-serinamide] was tested. Which pIC50 did it give?
**A.** < 5.70

**Q.** `N#Cc1c(SCC(=O)Nc2cccc(C(F)(F)F)c2)nc(N)nc1N1CCOCC1` [Example 84, 2-[(2-amino-5-cyano-6-morpholin-4-ylpyrimidin-4-yl)thio]-N-[3-(trifluoromethyl)phenyl]acetamide] was tested. Which pIC50 did it give?
**A.** < 5.70

**Q.** How did the pIC50 turn out when `CSc1nc(N)nc(N[C@@H](C)C(=O)Nc2cc(C(=O)NCCN(C)C)cc(C(F)(F)F)c2)c1C#N` [Example 125, 3-({N-[2-amino-5-cyano-6-(methylthio)pyrimidin-4-yl]-L-alanyl}amino)-N-[2-(dimethylamino)ethyl]-5-(trifluoromethyl)benzamide] was run?
**A.** < 5.70

**Q.** `CCCOc1nc(N)nc(N(C)[C@@H](C)C(=O)Nc2cccc(C(F)(F)F)c2)c1C#N` [Example 120, N^2-[2-amino-5-cyano-6-(propyloxy)pyrimidin-4-yl]-N^2-methyl-N-[3-(trifluoromethyl)phenyl]-L-alaninamide] was tested. Which pIC50 did it give?
**A.** < 5.70

**Q.** With `Nc1nc(SCC(=O)Nc2cccc(C(F)(F)F)c2)c(C=O)c(Sc2ccccc2)n1` [Example 51, 2-{[2-amino-5-formyl-6-(phenylthio)pyrimidin-4-yl]thio}-N-[3-(trifluoromethyl)phenyl]acetamide] as the molecule, how does the pIC50 read?
**A.** 6.30 to 7.30

**Q.** `CSc1nc(N)nc(OCC(=O)Nc2cccc(C(F)(F)F)c2)c1C=O` [Example 46, 2-{[2-amino-5-formyl-6-(methylthio)pyrimidin-4-yl]oxy}-N-[3-(trifluoromethyl)phenyl]acetamide] was tested. Which pIC50 did it give?
**A.** 6.30 to 7.30

**Q.** With `CSc1nc(N)nc(NCC(=O)Nc2cccc(C(F)(F)F)c2)c1/C=N/O` [Example 59, N^2-[2-amino-5-[(E)-(hydroxymino)methyl]-6-(methylthio)pyrimidin-4-yl]-N-[3-(trifluoromethyl)phenyl]glycinamide] as the molecule, how does the pIC50 read?
**A.** 5.70 to 6.30

**Q.** `CSc1nc(N)nc(N[C@@H](CCC(=O)O)C(=O)Nc2cccc(C(F)(F)F)c2)c1C#N` [Example 149, N~2~-[2-amino-5-cyano-6-(methylthio)pyrimidin-4-yl]-N-[3-(trifluoromethyl)phenyl]-Lalpha-glutamine] was tested. Which pIC50 did it give?
**A.** 5.70 to 6.30

**Q.** With `COCCNc1nc(N[C@@H](C)C(=O)Nc2cccc(C(F)(F)F)c2)c(C#N)c(SC)n1` [Example 116] as the molecule, how does the pIC50 read?
**A.** < 5.70

**Q.** How did the pIC50 turn out when `CSc1nc(N)nc(NCCC[C@H](N)C(=O)Nc2cccc(C(F)(F)F)c2)c1C#N` [Example 155, N~5~-[2-amino-5-cyano-6-(methylthio)pyrimidin-4-yl]-N-[3-(trifluoromethyl)phenyl]-L-ornithinamide] was run?
**A.** < 5.70

**Q.** With `CCOc1nc(N)nc(N[C@@H](C)C(=O)Nc2cc(C(=O)NCCCN3CCCC3)cc(C(F)(F)F)c2)c1C#N` [Example 158, 3-({N-[2-amino-5-cyano-6-(ethyloxy)pyrimidin-4-yl]-L-alanyl}amino)-N-(3-pyrrolidin-1-ylpropyl)-5-(trifluoromethyl)benzamide] as the molecule, how does the pIC50 read?
**A.** < 5.70

**Q.** How did the pIC50 turn out when `C[C@H](Nc1nc(N)nc(O)c1C#N)C(=O)Nc1cccc(C(F)(F)F)c1` [Example 99, N^2-(2-amino-5-cyano-6-hydroxypyrimidin-4-yl)-N-[3-(trifluoromethyl)phenyl]-L-alaninamide] was run?
**A.** < 5.70

**Q.** With `C[C@H](Nc1nc(N)nc(N[C@@H](C)C(=O)Nc2cccc(C(F)(F)F)c2)c1C#N)C(=O)Nc1cccc(C(F)(F)F)c1` [Example 108, 2-{2-amino-5-cyano-6[1-(3-trifluoromethyl-phenylcarbamoyl)-1S-ethylamino]-pyrimidin-4-ylamino}N-(3-trifluoromethyl-phenyl)-2S-propionamide] as the molecule, how does the pIC50 read?
**A.** < 5.70

**Q.** How did the pIC50 turn out when `Cc1nc2oc(C(=O)Nc3cccc(C(F)(F)F)c3)c(N)c2c(C)c1[N+](=O)[O-]` [Example 98, 3-amino-4,6-dimethyl-5-nitro-N-[3-(trifluoromethyl)phenyl]furo[2,3-b]pyridine-2-carboxamide] was run?
**A.** < 5.70

**Q.** `COc1nc(N)nc(N(C)[C@@H](C)C(=O)Nc2cccc(OC(F)(F)F)c2)c1C#N` [Example 188, N~2~-[2-amino-5-cyano-6-(methyloxy)pyrimidin-4-yl]-N~2~-methyl-N-{3-[(trifluoromethyl)oxy]phenyl}-L-alaninamide] was tested. Which pIC50 did it give?
**A.** < 5.70

same assay, conditions: p70S6K IC50, human p70S6 kinase domain residues 1-421, T412E; 5 μM ATP

**Q.** `CSc1nc(N)nc(O[C@@H](C)C(=O)Nc2cccc(C(F)(F)F)c2)c1C#N` [Example 42, (2S)-2-{[2-amino-5-cyano-6-(methylthio)pyrimidin-4-yl]oxy}-N-[3-(trifluoromethyl)phenyl]propanamide] was tested. Which pIC50 did it give?
**A.** 6.30 to 7.30
